In patent US20250134904A1, “SOLID PHARMACEUTICAL FORMULATIONS OF VARENICLINE” (MEDICHEM, S.A., priority 2021, published 2025):
Counter-ions that a name gives are not always drawn.

Columns and labels:
[1] = based on lifetime exposure; cited from earlier work
[2] = HPLC-MS quantification of N-nitroso-varenicline impurity (II) in tablets, after manufacture and after storage/stress; type: physicochemical; conditions: starting material before tablet manufacture
Experimental: The N-nitroso-varenicline-impurity (II) level in the solid pharmaceutical formulation of the present invention may be detected by high performance liquid chromatography (HPLC) method disclosed in the present invention.
HPLC Method Used for Analyzing N-Nitroso-Varenicline Impurity (II)
The chromatographic separation was carried out using an Acquity UPLC HSS PFP, 2.1×100 mm, 1.8 μm at 35±2° C.
Mobile phase A: 0.05% (v/v) formic acid solution in water.
Mobile phase A is prepared as follows: Dilute with water, 0.5 mL of formic acid in a 1000 mL volumetric flask.
Mobile phase B: Acetonitrile LC-MS grade.
The chromatograph was programmed as follows: initial 2 min isocratic 90% mobile phase A; 2-11 min linear gradient to 50% mobile phase A; 11-16 min isocratic 50% mobile phase A; 16-18 min linear gradient to 90% mobile phase A; 18-23 min isocratic 90% mobile phase A.
The chromatograph was equipped with equipped with a mass detector. The acquisition was made in Single Ion Monitoring. The ion with m/z 241.0 was monitored at 0.8 points/s. The ionization mode was positive electrospray (ESI+), the source temperature was set at 130° C., desolvation gas flow was at 500 L/h and the capillary voltage was set at 3 kV. The cone voltage was set at 20 V for the ion with m/z 241.0. […]
The quantification (μg/g or ppm) of N-nitroso-varenicline impurity (II) in test specimen was performed as follows: […]

Structure (SMILES): O=NN1CC2CC(C1)c1cc3nccnc3cc12 [N-nitroso-varenicline impurity (II)]
- intake considered reasonably safe for humans (FDA) [1]: up to 37 ng/day

Structure (SMILES): c1cnc2cc3c(cc2n1)C1CNCC3C1 [varenicline tartrate, 7,8,9,10-tetrahydro-6,10-methano-6H-pyrazino[2,3-h][3]benzazepine]
- N-nitroso-varenicline impurity (II) content of the varenicline tartrate used as starting material [2]: less than 0.4 ppm
